These results are taken from ChEMBL document CHEMBL2439957, “Design and synthesis of novel pyrimidone analogues as HIV-1 integrase inhibitors” (Bioorg Med Chem Lett, 2013).

A value given as a limit tells only on which side of the number the result lay.

Assay [1] has as its target T1, Human immunodeficiency virus type 1 integrase (Human immunodeficiency virus 1, UniProt Q7ZJM1). As to the kind of experiment: Inhibition of Human immunodeficiency virus 1 integrase strand transfer activity after 30 mins by polyacrylamide gel electrophoresis.
In assay [2] the target is T1, Human immunodeficiency virus type 1 integrase. The assay can be described thus: Inhibition of Human immunodeficiency virus 1 integrase 3'-processing activity after 30 mins by polyacrylamide gel electrophoresis.

T1 sequence (Q7ZJM1 whole entry): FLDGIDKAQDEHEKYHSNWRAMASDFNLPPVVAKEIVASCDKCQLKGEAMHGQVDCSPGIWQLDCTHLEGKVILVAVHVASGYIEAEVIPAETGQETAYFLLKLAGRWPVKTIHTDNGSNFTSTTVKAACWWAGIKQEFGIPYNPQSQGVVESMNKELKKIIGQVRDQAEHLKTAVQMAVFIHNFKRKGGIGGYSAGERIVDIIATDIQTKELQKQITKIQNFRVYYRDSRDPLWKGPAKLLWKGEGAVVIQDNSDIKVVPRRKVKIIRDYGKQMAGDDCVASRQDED

As to `CC(C)(C)OC(=O)NCCCn1c(C(C)(C)C)nc(C(=O)NCc2ccc(F)cc2)c(O)c1=O`, the IC50 in assay [1] and in assay [2] was greater than 20 µM each time.

As for `CC(C)(C)c1nc(C(=O)NCc2ccc(F)cc2)c(O)c(=O)n1CCCN`, the IC50 in assay [1] and in assay [2] was greater than 20 µM each time. For the compound `CC(C)(C)c1nc(C(=O)NCc2ccc(F)cc2)c(O)c(=O)n1CCCNC(=O)C1CC1` [listing 1 of 2 here], the IC50 (usually the midpoint of a concentration-inhibition curve) in assay [1] was found to be 3 µM. Turning to `CC(C)(C)c1nc(C(=O)NCc2ccc(F)cc2)c(O)c(=O)n1CCCNC(=O)c1ccccc1`, the IC50 in assay [1] is 13 µM; in assay [2], greater than 20 µM. In the same order, the values of `CC(=O)NCCCn1c(C(C)(C)C)nc(C(=O)NCc2ccc(F)cc2)c(O)c1=O` are 2 µM and greater than 20 µM.

`CCC(=O)NCCCn1c(C(C)(C)C)nc(C(=O)NCc2ccc(F)cc2)c(O)c1=O` [listing 1 of 2 here] gave an IC50 in assay [1] of 6 µM. That is a single-digit micromolar value. As to `CCCC(=O)NCCCn1c(C(C)(C)C)nc(C(=O)NCc2ccc(F)cc2)c(O)c1=O`, the IC50 was 20 µM in assay [1] and greater than 20 µM in assay [2]. In turn, `CC(C)(C)c1nc(C(=O)NCc2ccc(F)cc2)c(O)c(=O)n1CCCNS(=O)(=O)C1CC1` [listing 1 of 2 here] displayed an IC50 in assay [1] of 20 µM. Take `CCS(=O)(=O)NCCCn1c(C(C)(C)C)nc(C(=O)NCc2ccc(F)cc2)c(O)c1=O`: the IC50 in assay [1] is 7 µM; in assay [2] it was greater than 20 µM.

On to `CC(C)(C)c1nc(C(=O)NCc2ccc(F)cc2)c(O)c(=O)n1CCCNC(=O)c1cccs1`, for which the values for the IC50 in assay [1] and in assay [2] were 14 µM and greater than 20 µM, respectively. For `CC(C)(C)c1nc(C(=O)NCc2ccc(F)cc2)c(O)c(=O)n1CCCNC(=O)Cc1cccs1` the same measures were 20 µM and greater than 20 µM. For the compound `CC(C)(C)c1nc(C(=O)NCc2ccc(F)cc2)c(O)c(=O)n1CCCNC(=O)c1ccco1`, the IC50 in assay [1] is 3 µM; in assay [2] it was greater than 20 µM.

With `Cn1cnc(S(=O)(=O)NCCCn2c(C(C)(C)C)nc(C(=O)NCc3ccc(F)cc3)c(O)c2=O)c1`, the IC50 in assay [1] was 12 µM; in assay [2], greater than 20 µM. Regarding `CC(C)(C)C(=O)NCCCn1c(C(C)(C)C)nc(C(=O)NCc2ccc(F)cc2)c(O)c1=O`, the values for the IC50 in assay [1] and in assay [2] were 20 µM and greater than 20 µM, respectively.

With `CC(=O)Nc1ccc(S(=O)(=O)NCCCn2c(C(C)(C)C)nc(C(=O)NCc3ccc(F)cc3)c(O)c2=O)cc1`, the IC50 in assay [1] was 8 µM; in assay [2], greater than 20 µM. As for `CC(C)(C)c1nc(C(=O)NCc2ccc(F)cc2)c(O)c(=O)n1CCCNC(=O)C1CC1` [listing 2 of 2 here], the IC50 in assay [1] was 5 µM; in assay [2], greater than 20 µM. As for `CCC(=O)NCCCn1c(C(C)(C)C)nc(C(=O)NCc2ccc(F)cc2)c(O)c1=O` [listing 2 of 2 here], the IC50 in assay [1] was 4 µM; in assay [2], greater than 20 µM.

Take `CC(C)(C)c1nc(C(=O)NCc2ccc(F)cc2)c(O)c(=O)n1CCCNS(=O)(=O)c1ccccc1`: the IC50 in assay [1] is 20 µM; in assay [2], greater than 20 µM. Regarding `CC(C)(C)c1nc(C(=O)NCc2ccc(F)cc2)c(O)c(=O)n1CCCNS(=O)(=O)C1CC1` [listing 2 of 2 here], the IC50 in assay [1] was 9 µM; in assay [2] it was greater than 20 µM. As for `CC(C)(C)c1nc(O)c(O)c(C(=O)NCc2ccc(F)cc2)n1`, the half-maximal inhibitory concentration (IC50) in assay [1] was 2 µM; in assay [2], greater than 20 µM.
